Results reported in US20230310421A1, “MOLECULES FOR USE IN THE TREATMENT OF VIRAL INFECTIONS” (priority 2020, published 2023).

Columns and labels:
[1] = system: MHV-A59; experiment: Direct (intrinsic) antiviral activity: survival, titer and syncitia formation in L929, BMDMs and LA4 cells; assay type: cell-based, Murine Hepatitis Virus
[2] = system: L929 cells; experiment: Macrophage extrinsic cytotoxic activity (ECT): supernatant of MHV-infected BMDM on L929 cells, CellTiter-Glo / live imaging; conditions: L929 cells exposed to supernatant from MOI 0.1-infected BMDM

N[C@H]1CC[C@H](N[C@@H]2C[C@H]2c2ccccc2)CC1 [Ory1001]
intrinsic antiviral activity ([1]; drug applied directly on infected L929 cells): elicited intrinsic antiviral activity

JAK inhibitor I
effect on ECT (viability in uninfected cells) [2]: no effect | effect on DDP rescue of cell viability of infected L929 cells [1]: No effect
